Experimental data published in PMC4891189 (Pharmaceutical research, 2015).
“Also recorded” adds a separate entry of the source. Blank lines part the entries; values can stand above or below the compound they belong to.

Columns and labels:
[1] = PAMPA permeability at different pH
[2] = tested on: P-gp; assay: Bidirectional transport across Caco-2 cell monolayers; conditions: human
[3] = tested on: P-gp (MDR1); assay: Bidirectional transport across MDCK-MDR1 cell monolayers; format: in vitro ADME, canine; conditions: dog
[4] = tested on: MDCK-MDR1 cell monolayers; assay: as above; format: in vitro ADME, canine
[5] = tested on: hemodynamic effects; conditions: healthy subjects ref 8; cited from earlier work
[6] = tested on: Caco-2 cell monolayers; assay: Bidirectional transport across Caco-2 cell monolayers; conditions: 50 µM
[7] = tested on: beta-blocking activity; conditions: animal studies ref 7; cited from earlier work
[8] = tested on: rat jejunum
[9] = tested on: rat jejunum; assay: Transport study in rat jejunum Ussing chamber; conditions: after 90 min, leakage indicator
[10] = cited from earlier work
[11] = tested on: P-gp; conditions: mdr1a (−/−) mice intestine ref 29; cited from earlier work
[12] = tested on: human jejunum; conditions: single-pass perfusion, healthy volunteers ref 9; cited from earlier work
[13] = oral administration, after first-pass metabolism; cited from earlier work
[14] = Caco-2, pH 7.4, with GG918 0.5 µM
[15] = MDCK-MDR1, pH 7.4, with GG918 0.5 µM
[16] = 50 µM, MDCK-MDR1, pH 7.4, GG918 0.5 µM

Papp A→B at 120 min, 0.01 µM ([2]; Caco-2, pH 7.4): 0.64 ± 0.03 ×10⁻⁶ cm/s
Papp B→A at 120 min, 0.01 µM ([2]; Caco-2, pH 7.4): 1.64 ± 0.13 ×10⁻⁶ cm/s
efflux ratio at 120 min, 0.01 µM ([2]; Caco-2, pH 7.4): 2.57 ± 0.33
Papp A→B at 120 min, 0.01 µM [2, 14]: 1.17 ± 0.07 ×10⁻⁶ cm/s
Papp B→A at 120 min, 0.01 µM [2, 14]: 1.19 ± 0.05 ×10⁻⁶ cm/s
efflux ratio at 120 min, 0.01 µM [2, 14]: < 2
Papp A→B at 120 min, 0.01 µM ([3]; MDCK-MDR1, pH 7.4): 0.26 ± 0.02 ×10⁻⁶ cm/s
Papp B→A at 120 min, 0.01 µM ([3]; MDCK-MDR1, pH 7.4): 2 ± 0.01 ×10⁻⁶ cm/s
Papp A→B at 120 min, 0.01 µM [3, 15]: 0.41 ± 0.1 ×10⁻⁶ cm/s
Papp B→A at 120 min, 0.01 µM [3, 15]: 0.67 ± 0.06 ×10⁻⁶ cm/s
efflux ratio at 120 min, 0.01 µM ([3]; MDCK-MDR1, pH 7.4, with GG918 0.5 µM, Efflux Ratio, Digoxin 0.01 µM, MDR1-MDCK cells, +GG918 0.5 µM): < 2
Efflux Ratio ([4]; Digoxin 0.01 µM, MDR1-MDCK cells, +GG918 0.5 µM): 1.52±0.16
SMILES: C[C@H]1O[C@@H](O[C@H]2[C@@H](O)C[C@H](O[C@H]3[C@@H](O)C[C@H](O[C@H]4CC[C@@]5(C)[C@H](CC[C@@H]6[C@@H]5C[C@@H](O)[C@]5(C)[C@@H](C7=CC(=O)OC7)CC[C@]65O)C4)O[C@@H]3C)O[C@@H]2C)C[C@H](O)[C@@H]1O [Digoxin, digoxin]
effect of apical pH on permeability ([1]; 5 µM digoxin): no statistical differences; also recorded: did not show different permeability results

SMILES: CC(C)NC[C@@H](O)COc1cccc2ccccc12 [R-propranolol]
hemodynamic effects [5]: ineffective

SMILES: CC(C)NCC(O)COc1cccc2ccccc12 (centres unmarked) [S-propranolol]
mass retention ([1]; 25 nM): 58±4%
mass retention ([1]; 50 µM): 12%±1
permeability compared with high permeability standard labetalol ([1]; 50 µM each, pH 7.4 both sides): higher permeability than 50 µM labetalol
simulated efflux ratio (Papp, B->A/ Papp, A->B) ([1]; 50 µM, apical pH 6.5, basolateral pH 7.4): 3.39
simulated efflux ratio (Papp, B->A/ Papp, A->B) ([1]; 50 µM, apical pH 7.4, basolateral pH 7.4): 1
Papp, A->B ([1]; 50 µM, pH 6.5→pH 7.4): 8.1±0.3 × 10^−6 cm/sec
simulated Papp, B->A ([1]; 50 µM, pH 7.4→pH 6.5): 27.3±0.4 × 10^−6 cm/sec
Papp ([1]; 50 µM, pH 7.4→pH 7.4): 19.2±2.6 × 10^−6 cm/sec
mass retention ([1]; 100 µM): 8%±1
pH dependent transcellular permeability at 100 µM compared with 50 µM ([1]; 100 µM): almost identical to that observed at 50 µM
change of Papp, A->B as apical pH changed from 7.4 to 6.5 ([6]; Caco-2): markedly decreased
change of Papp, B->A as apical pH changed from 7.4 to 6.5 ([6]; Caco-2): significantly increased
Papp, A->B in the presence of GG918 ([6]; Caco-2, apical pH 6.5): small but significant increase
basolateral to apical efflux in the presence or absence of GG918 ([6]; Caco-2, apical pH 6.5): no significant differences
effect of GG918 on basolateral and apical permeabilities ([4]; 25 nM, MDCK-MDR1, pH 7.4 on both sides): no effect of GG918 was observed
Papp, A->B in the presence of GG918 ([4]; 50 µM, MDCK-MDR1, apical pH 6.5): decreased significantly
Papp, A→B in the absence or presence of GG918 [4, 16]: unexplained significant difference
basolateral to apical efflux in the absence or presence of GG918 [4, 16]: no significant differences
beta-blocking activity, times more potent than R-propranolol [7]: 100 times
effect of verapamil on Papp in the absorptive direction ([8]; not told): did not alter
change of Papp mucosal to serosal (absorption) with mucosal pH ([8]; pH 6.5): statistically significant decrease
effect of mucosal pH on serosal to mucosal permeability (secretion) ([8]; pH 6.5): didn’t significantly affect

permeated from the mucosal to serosal side [9]: less than 1%
SMILES: O=S1(=O)OC(c2ccc(O)cc2)(c2ccc(O)cc2)c2ccccc21 [phenol red]

SMILES: CC(C)NCC(O)COc1cccc2ccccc12.Cl (centres unmarked) [propranolol HCl]
dose number [10]: 0.006

SMILES: CC(C)NCC(O)COc1cccc2ccccc12 (centres unmarked) [propranolol]
permeability, P-gp expressed vs knocked out [11]: not influenced
effective permeability [12]: 280 ×10⁻⁶ cm/s
dose reaching the systemic circulation unchanged [13]: 25%
